Measured values from patent publication US11337984B2, “Methods for treating, diagnosing and prognosing a haematological malignancy” (Institut de Recerca Contra La Leucèmia Josep Carreras, priority 2014, dated 2022).

Key:
AML cells = assay: CFU assay of engrafted AML samples; type: cell-based; details: engrafted human cells from primary transplanted mice
Description: (§1) FIG. 17. Treatments with 5HTR antagonists reduce the leukemia regeneration capacity of primary AML samples in secondary recipient, without affecting normal hematopoiesis. Upper panel. 3-10×10^5 engrafted bone marrow cells from primary transplanted mice were injected intravenously into secondary recipients (conditioned NSG mice) and left untreated for 8 weeks. Bone marrow cells were analyzed as in FIG. 16. Frequency of human CD45 positive cells referred to control is represented. Lower panel. 50×10^3 engrafted human cells were screened for CFUs. The normalized number of CFUs obtained is represented. *p<0.05; ***p<0.005; ****p<0.0001.
(§2) In order to assay the in vivo self-renewal capacity remaining in the engrafted samples, secondary transplants were performed. Less than 35% of AML cells were detected in mice injected with apomorphine- or methiothepin-treated cells (FIG. 17).

MonoMac-1 cells = assay: In vivo xenotransplantation mouse model (NSG mice injected with MonoMac-1 cells); details: IP every other day, day 7 to 14; apomorphine 5 mg/kg, methiothepin 0.1 mg/kg; versus vehicle
Description: FIG. 15. Treatment with 5HTR1 antagonists reduce AML burden in an in vivo xenotransplantation mouse model. 6-8 week-old NOD.Cg-Prkdc^scid Il2rg^tm1Wj1/SzJ (NSG) mice were myeloablated with busulfan (30 mg/kg IP) at day 0. At day 1, 10^6 MonoMac-1 cells were injected IV. From day 7 to day 14, mice were treated IP every other day with apomorphine (5 mg/kg) or methiothepin (0.1 mg/kg), while control mice were treated with saline vehicle (0.9% NaCl). At day 15, mice were sacrificed and their bones (iliac crests, femurs and tibias) were harvested and analyzed for the presence of human cells. Bone marrow samples were measured by flow cytometry. Frequency of human CD45 positive cells (upper panel) and total human CD45 positive cells (lower panel) in BM refer to control. Bars represent the mean value. Error bars represent SEM. **p<0.01; ***p<0.001.
Leukemia cells mainly reside in the bone marrow niche where the stroma cell compartment provides paracrine signaling that strongly mediates their survival and proliferation and protects them from apoptosis ( ). Accordingly, conditioned immunodeficient NOD.Cg-Prkdc^scid Il2rg^tm1Wj1/SzJ (NSG) mice (Sanchez et al Leukemia. 2009 November; 23(11):2109-17) were transplanted with human AML cells and left for 7 days for the leukemia to be established. […]

[1] = tested on: primary CFU-Bs from AML patients; assay: Secondary CFU replating of pretreated primary AML CFU-Bs; type: cell-based, human; details: primary CFUs pretreated with 10 μM, replated 14 days without drug
engrafted healthy HSCs = assay: CFU assay of engrafted healthy HSCs; type: cell-based; details: engrafted human cells from primary transplanted mice
Description: as §1, §2

healthy blood cells = details: 0.1, 1 and 10 μM, 24 h or 72 h; healthy donor peripheral blood
[2] = tested on: primary haematopoietic stem/progenitor cells; assay: Viability of lineage-negative umbilical cord blood cells; details: 10 μM, 24 h
[3] = tested on: healthy haematopoietic stem/progenitor cells; assay: Clonogenic capacity of lineage-depleted umbilical cord blood cells; type: cell-based, human; details: 10 μM for 18 h, then 14 days in methylcellulose
Description: FIG. 11. […] Cells were then cultivated in Methylcellulose supplemented with haematopoietic cytokines for 14 days. The number of colonies obtained was measured by microscopy based on morphological criteria. A. Total number of colonies is represented. CFU: colony-forming units. B. Frequency of each colony subtype is shown (CFU-Mix, Mix lineaged colony; CFU-GM, granulo-monocyte colony; CFU-G, granulocyte colony; CFU-M, monocyte colony; BFU-E erythrocyte blast colony). 4 primary umbilical cord blood samples were analyzed.
Next, lineage-depleted umbilical cord blood cells were treated with Apomorphine or Methiothepin as done above for AML cells. 14 days after plating, colonies were counted by light microscopy based on morphology and cellularity.

[4] = tested on: healthy hematopoietic stem cells; assay: Secondary transplants of engrafted healthy cells in NSG mice; type: in vivo, mouse
Description: as §1, §2

primary AML samples = assay: Clonogenic capacity (CFU-B) of primary AML samples in methylcellulose; type: cell-based, human; details: 10 μM for 18 h, then 14 days in methylcellulose
Description: FIG. 10. The clonogenic capacity of primary AML samples is reduced upon 5HTR antagonist treatment. […] Cells were then cultivated in Methylcellulose supplemented with hematopoietic cytokines for 14 days. The number of CFU-B obtained was measured by microscopy based on morphological criteria. 7 primary AML blood samples were analyzed. Each symbol represents a specific patient sample. Lines represent the median. *p<0.05. CFU-B: Blast colony-forming units.
Taking into account that 5HTR antagonists reduced the cell viability of the most primitive AML population, the clonogenic capacity upon treatment was investigated. Primary patient AML samples were cultured in the presence of Apomorphine and Methiothepin for 18 h and plated in a semi-solid methylcellulose media for 14 days in the presence of instructive cytokines at a concentration of fifty thousand cells per mL. Colonies were counted by light microscopy based on morphology and cellularity.

With `CN1CCc2cccc3c2[C@H]1Cc1ccc(O)c(O)c1-3` [Apomorphine, (6aR)-6-methyl-5,6,6a,7-tetrahydro-4H-dibenzo[de,g]quinoline-10,11-diol] the “clonogenic capacity of engrafted AML samples (CFU assays)” value (AML cells) was “significantly reduced”, the “AML burden in bone marrow” value (MonoMac-1 cells) was “significant reduction in AML burden” and the “clonogenic capacity in secondary CFUs” value [1] was “a reduction in the clonogenic capacity was observed”. The “clonogenic capacity of engrafted healthy HSCs (CFU assays)” value (engrafted healthy HSCs) was “little effect”, the “healthy blood cell viability” value (healthy blood cells) was “remains unaffected” and the “viability of healthy haematopoietic stem/progenitor cells” value [2] was “remain unaffected”. For the same molecule, the “clonogenic capacity of healthy haematopoietic stem/progenitor cells (total colonies, frequency of CFU subtypes)” value [3] was “None of the 5HTR antagonists affected the clonogenic capacity”, the “self-renewal and differentiation capacity of healthy hematopoietic stem cells in secondary transplants” value [4] was “retained their self-renewal and differentiation capacity” and the “clonogenic capacity of primary AML samples (number of CFU-B)” value (primary AML samples) was “reduced the clonogenic capacity”.
